From PMC7531601, “Exploiting Lactoferricin (17–30) as a Potential Antimicrobial and Antibiofilm Candidate Against Multi-Drug-Resistant Enteroaggregative Escherichia coli” (Frontiers in Microbiology, 2020)
Where two headings read alike, the source gives them in different places. Ends that are not written are not given here.

Assays:
[1] = tested on: preformed (48 h) MDR-EAEC biofilm; settings: preformed (48 h) biofilm of MDR-EAEC strains
Experimental: The MBEC of Lfcin (17–30) was determined against the preformed (48 h) MDR-EAEC biofilm ([Ceri et al., 1999]). MBEC value is the lowest concentration of Lfcin (17–30) that prevented the MDR-EAEC re-growth. This MBEC value of Lfcin (17–30) was further used to study the eradication of biofilm formed by MDR-EAEC strains.

[2] = tested on: MDR-EAEC isolates
Experimental: Initially, characterization of Lfcin (17–30) was performed by determining its minimum inhibitory concentration (MIC), minimum bactericidal concentration (MBC), in vitro stability assays (high-end temperatures, the physiological concentration of cationic salts and proteases), and in vitro safety assays (sheep erythrocyte hemolysis and secondary cell line cytotoxicity) (Supplementary Files S1–S3). The membrane permeabilization effect of Lfcin (17–30) was assessed by flow cytometry, whereas outer and inner membrane permeability of MDR-EAEC strains treated with 1 × and 2 × MIC levels of Lfcin (17–30) was carried out based on the nitrocefin activity as well as the release of cytoplasmic β-galactosidase activity, respectively (Supplementary File S4). Further, Lfcin (17–30) was evaluated for its antibacterial activity against beneficial lactobacilli (L. acidophilus MTCC 10307 and L. rhamnosus MTCC 1408) (Supplementary File S5).
To explore the utility of Lfcin (17-30) as a therapeutic molecule, in vitro stability was evaluated by exposing it to high-end temperatures, proteases as well as the physiological concentration of salts. In brief, the effect of temperature was investigated by incubating Lfcin (17-30) at 70 °C and 90 °C for 5, 15, and 30 min followed by measuring the MIC value. The effect of proteases (trypsin and proteinase-K) on the antimicrobial activity of Lfcin (17-30) [Protease: AMP- 1:100 (w/w)] was investigated by incubating with the respective protease at 37 °C for 30 sec, 2, 5, 15 and 30 min, followed by inactivating the enzyme at 90 °C for 10 min and measuring the MIC value. The stability of Lfcin (17-30) in the presence of high salt concentrations (150 mM and 2 mM MgCl2) was estimated in regular MH broth. Appropriate controls were included in each experiment.

[3] = MgCl2 (2 mM), regular MH broth, MDR 1
[4] = MgCl2 (2 mM), regular MH broth, MDR 2
[5] = MgCl2 (2 mM), regular MH broth, MDR 3
[6] = NaCl (150 mM), regular MH broth, MDR 1
[7] = NaCl (150 mM), regular MH broth, MDR 2
[8] = NaCl (150 mM), regular MH broth, MDR 3
[9] = peptide incubated at 70°C for 5 min, MDR 1
[10] = peptide incubated at 70°C for 5 min, MDR 2
[11] = peptide incubated at 70°C for 5 min, MDR 3
[12] = peptide incubated at 70°C for 15 min, MDR 1
[13] = peptide incubated at 70°C for 15 min, MDR 2
[14] = peptide incubated at 70°C for 15 min, MDR 3
[15] = peptide incubated at 70°C for 30 min, MDR 1
[16] = peptide incubated at 70°C for 30 min, MDR 2
[17] = peptide incubated at 70°C for 30 min, MDR 3
[18] = peptide incubated at 90°C for 5 min, MDR 1
[19] = peptide incubated at 90°C for 5 min, MDR 2
[20] = peptide incubated at 90°C for 5 min, MDR 3
[21] = peptide incubated at 90°C for 15 min, MDR 1
[22] = peptide incubated at 90°C for 15 min, MDR 2
[23] = peptide incubated at 90°C for 15 min, MDR 3
[24] = peptide incubated at 90°C for 30 min, MDR 1
[25] = peptide incubated at 90°C for 30 min, MDR 2
[26] = peptide incubated at 90°C for 30 min, MDR 3
[27] = proteinase-K 1:100 (w/w), 37°C, 2 min, MDR 1
[28] = proteinase-K 1:100 (w/w), 37°C, 2 min, MDR 2
[29] = proteinase-K 1:100 (w/w), 37°C, 2 min, MDR 3
[30] = proteinase-K 1:100 (w/w), 37°C, 5 min, MDR 1
[31] = proteinase-K 1:100 (w/w), 37°C, 5 min, MDR 2
[32] = proteinase-K 1:100 (w/w), 37°C, 5 min, MDR 3
[33] = proteinase-K 1:100 (w/w), 37°C, 15 min, MDR 1
[34] = proteinase-K 1:100 (w/w), 37°C, 15 min, MDR 2
[35] = proteinase-K 1:100 (w/w), 37°C, 15 min, MDR 3
[36] = proteinase-K 1:100 (w/w), 37°C, 30 min, MDR 1
[37] = proteinase-K 1:100 (w/w), 37°C, 30 min, MDR 2
[38] = proteinase-K 1:100 (w/w), 37°C, 30 min, MDR 3
[39] = trypsin 1:100 (w/w), 37°C, 2 min, MDR 1
[40] = trypsin 1:100 (w/w), 37°C, 2 min, MDR 2
[41] = trypsin 1:100 (w/w), 37°C, 2 min, MDR 3
[42] = trypsin 1:100 (w/w), 37°C, 5 min, MDR 1
[43] = trypsin 1:100 (w/w), 37°C, 5 min, MDR 2
[44] = trypsin 1:100 (w/w), 37°C, 5 min, MDR 3
[45] = trypsin 1:100 (w/w), 37°C, 15 min, MDR 1
[46] = trypsin 1:100 (w/w), 37°C, 15 min, MDR 2
[47] = trypsin 1:100 (w/w), 37°C, 15 min, MDR 3
[48] = trypsin 1:100 (w/w), 37°C, 30 min, MDR 1
[49] = trypsin 1:100 (w/w), 37°C, 30 min, MDR 2
[50] = trypsin 1:100 (w/w), 37°C, 30 min, MDR 3

FKCRRWQWRMKKLG [Lfcin (17–30)] showed an MBEC [1] of 32 µM, an MBC [2, 3] of 32.0 µg/mL and an MIC [2, 3] of 32.0 µg/mL. It also gave an MBC [2, 4] of 32.0 µg/mL, an MIC [2, 4] of 32.0 µg/mL and an MBC [2, 5] of 32.0 µg/mL. For the same sequence, the MIC [2, 5] was 32.0 µg/mL, the MBC [2, 6] was 32.0 µg/mL and the MIC [2, 6] was 32.0 µg/mL. For the same sequence, the MBC [2, 7] was 32.0 µg/mL, the MIC [2, 7] was 32.0 µg/mL and the MBC [2, 8] was 32.0 µg/mL. The MIC [2, 8] was 32.0 µg/mL, the MBC [2, 9] was 32.0 µg/mL and the MIC [2, 9] was 32.0 µg/mL. For the same sequence, the MBC [2, 10] was 32.0 µg/mL, the MIC [2, 10] was 32.0 µg/mL and the MBC [2, 11] was 32.0 µg/mL. The MIC [2, 11] was 32.0 µg/mL, the MBC [2, 12] was 32.0 µg/mL and the MIC [2, 12] was 32.0 µg/mL. It also gave an MBC [2, 13] of 32.0 µg/mL, an MIC [2, 13] of 32.0 µg/mL and an MBC [2, 14] of 32.0 µg/mL. The MIC [2, 14] was 32.0 µg/mL, the MBC [2, 15] was 32.0 µg/mL and the MIC [2, 15] was 32.0 µg/mL. For the same sequence, the MBC [2, 16] was 32.0 µg/mL, the MIC [2, 16] was 32.0 µg/mL and the MBC [2, 17] was 32.0 µg/mL. It also gave an MIC [2, 17] of 32.0 µg/mL, an MBC [2, 18] of 32.0 µg/mL and an MIC [2, 18] of 32.0 µg/mL. It also gave an MBC [2, 19] of 32.0 µg/mL, an MIC [2, 19] of 32.0 µg/mL and an MBC [2, 20] of 32.0 µg/mL. The MIC [2, 20] was 32.0 µg/mL, the MBC [2, 21] was 32.0 µg/mL and the MIC [2, 21] was 32.0 µg/mL. It also gave an MBC [2, 22] of 32.0 µg/mL, an MIC [2, 22] of 32.0 µg/mL and an MBC [2, 23] of 32.0 µg/mL. It also gave an MIC [2, 23] of 32.0 µg/mL, an MBC [2, 24] of 32.0 µg/mL and an MIC [2, 24] of 32.0 µg/mL. For the same sequence, the MBC [2, 25] was 32.0 µg/mL, the MIC [2, 25] was 32.0 µg/mL and the MBC [2, 26] was 32.0 µg/mL. The MIC [2, 26] was 32.0 µg/mL, the MBC ([2]; proteinase-K 1:100 (w/w), 37°C, 0.5 min, MDR 1) was 16.0 µg/mL and the MBC ([2]; proteinase-K 1:100 (w/w), 37°C, 0.5 min, MDR 2) was 32.0 µg/mL. The MBC ([2]; proteinase-K 1:100 (w/w), 37°C, 0.5 min, MDR 3) was 4.0 µg/mL, the MBC [2, 27] was 16.0 µg/mL and the MIC [2, 27] was 8.0 µg/mL. For the same sequence, the MBC [2, 28] was 32.0 µg/mL, the MIC [2, 28] was 8.0 µg/mL and the MBC [2, 29] was 4.0 µg/mL. The MIC [2, 29] was 4.0 µg/mL, the MBC [2, 30] was 16.0 µg/mL and the MIC [2, 30] was 8.0 µg/mL. It also gave an MBC [2, 31] of 32.0 µg/mL, an MIC [2, 31] of 8.0 µg/mL and an MBC [2, 32] of 4.0 µg/mL. For the same sequence, the MIC [2, 32] was 4.0 µg/mL, the MBC [2, 33] was 16.0 µg/mL and the MIC [2, 33] was 8.0 µg/mL. It also gave an MBC [2, 34] of 32.0 µg/mL, an MIC [2, 34] of 8.0 µg/mL and an MBC [2, 35] of 4.0 µg/mL. For the same sequence, the MIC [2, 35] was 4.0 µg/mL, the MBC [2, 36] was 8.0 µg/mL and the MIC [2, 36] was 8.0 µg/mL. The MBC [2, 37] was 16.0 µg/mL, the MIC [2, 37] was 8.0 µg/mL and the MBC [2, 38] was 4.0 µg/mL. For the same sequence, the MIC [2, 38] was 2.0 µg/mL, the MIC ([2]; proteinase-K, protease:AMP 1:100 (w/w), 37°C, 0.5 min, enzyme inactivated 90°C 10 min, MDR 1) was 8.0 µg/mL and the MIC ([2]; proteinase-K, protease:AMP 1:100 (w/w), 37°C, 0.5 min, enzyme inactivated 90°C 10 min, MDR 2) was 8.0 µg/mL. For the same sequence, the MIC ([2]; proteinase-K, protease:AMP 1:100 (w/w), 37°C, 0.5 min, enzyme inactivated 90°C 10 min, MDR 3) was 4.0 µg/mL, the “stability to protease (proteinase-K)” value ([2]; proteinase-K, judged by MIC and MBC) was “stable” and the MBC ([2]; trypsin 1:100 (w/w), 37°C, 0.5 min, MDR 1) was 16.0 µg/mL. The MBC ([2]; trypsin 1:100 (w/w), 37°C, 0.5 min, MDR 2) was 16.0 µg/mL, the MBC ([2]; trypsin 1:100 (w/w), 37°C, 0.5 min, MDR 3) was 16.0 µg/mL and the MBC [2, 39] was 16.0 µg/mL. The MIC [2, 39] was 16.0 µg/mL, the MBC [2, 40] was 16.0 µg/mL and the MIC [2, 40] was 16.0 µg/mL. It also gave an MBC [2, 41] of 16.0 µg/mL, an MIC [2, 41] of 16.0 µg/mL and an MBC [2, 42] of 16.0 µg/mL. The MIC [2, 42] was 16.0 µg/mL, the MBC [2, 43] was 16.0 µg/mL and the MIC [2, 43] was 16.0 µg/mL. It also gave an MBC [2, 44] of 16.0 µg/mL, an MIC [2, 44] of 16.0 µg/mL and an MBC [2, 45] of 16.0 µg/mL. For the same sequence, the MIC [2, 45] was 16.0 µg/mL, the MBC [2, 46] was 16.0 µg/mL and the MIC [2, 46] was 16.0 µg/mL. The MBC [2, 47] was 32.0 µg/mL, the MIC [2, 47] was 16.0 µg/mL and the MBC [2, 48] was 16.0 µg/mL. The MIC [2, 48] was 16.0 µg/mL, the MBC [2, 49] was 16.0 µg/mL and the MIC [2, 49] was 16.0 µg/mL. For the same sequence, the MBC [2, 50] was 32.0 µg/mL, the MIC [2, 50] was 16.0 µg/mL and the MIC ([2]; trypsin, protease:AMP 1:100 (w/w), 37°C, 0.5 min, enzyme inactivated 90°C 10 min, MDR 1) was 16.0 µg/mL. The MIC ([2]; trypsin, protease:AMP 1:100 (w/w), 37°C, 0.5 min, enzyme inactivated 90°C 10 min, MDR 2) was 16.0 µg/mL, the MIC ([2]; trypsin, protease:AMP 1:100 (w/w), 37°C, 0.5 min, enzyme inactivated 90°C 10 min, MDR 3) was 16.0 µg/mL and the “stability to protease (trypsin)” value ([2]; trypsin, judged by MIC and MBC) was “stable”.
